Measured values as given in patent publication US7863271B2, “2-aminobenzoxazole carboxamides as 5HT3 modulators” (Albany Molecular Research, Inc., priority 2006, dated 2011).
Structures can show the parent of a compound that is named as a salt.

target: T1, 5-HT3 (Homo sapiens, UniProt P46098); experiment: Compound affinity for the human 5-HT3 receptor (Assay B), SPA radioligand binding with [9-methyl-3H]BRL-43694; set-up: purchased Perkin Elmer; settings: Assay B (method B unless otherwise annotated); read-out: 5-HT3 Ki
T1 sequence (P46098 24-478): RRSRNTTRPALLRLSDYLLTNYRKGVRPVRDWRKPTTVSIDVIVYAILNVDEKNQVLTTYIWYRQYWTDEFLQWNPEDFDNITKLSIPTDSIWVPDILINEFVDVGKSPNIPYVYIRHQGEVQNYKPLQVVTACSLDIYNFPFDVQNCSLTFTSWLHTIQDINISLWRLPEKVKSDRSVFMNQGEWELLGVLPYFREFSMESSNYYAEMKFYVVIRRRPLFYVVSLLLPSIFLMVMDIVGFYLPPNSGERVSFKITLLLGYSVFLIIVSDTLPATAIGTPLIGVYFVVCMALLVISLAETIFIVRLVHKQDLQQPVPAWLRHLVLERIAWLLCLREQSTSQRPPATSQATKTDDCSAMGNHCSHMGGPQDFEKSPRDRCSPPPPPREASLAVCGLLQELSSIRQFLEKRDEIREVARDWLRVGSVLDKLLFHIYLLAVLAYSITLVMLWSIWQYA
Protocol: Compound Affinity for the human 5-HT3 Receptor (Assay B)
The relative affinity of the various compounds for the human 5-HT3 receptor was measured in a radioligand binding assay, using a scintillation proximity assay (SPA) format. Test compounds were dissolved to 10 mM in 100% DMSO, then serially diluted at 10× assay concentrations in 100% DMSO in 96-well polypropylene plates and further diluted to 4× assay concentrations with the assay buffer. […] Binding reactions were set up in wells of PicoPlates-96 (Perkin Elmer) by adding consecutively 50 μL of each competing compound or buffer, SPA beads, the radioligand and 5-HT3 receptor membranes. After 60-min incubation at room temperature on a Nutator mixer, plates were centrifuged for 15 min at 1,500 rpm, followed by incubation in the dark for 30 min. Radioactivity was counted in the TopCount microplate counter (Perkin Elmer) for 5 min. […] Specific binding was determined by subtracting nonspecific binding from total binding. All experiments were performed in duplicate using ten concentrations of a competing ligand, with ondansetron included as a control in every run. IC50 values were determined from specific binding data using XLfit4.1 curve fitting software from IDBS Ltd. Ki values were then calculated from the Cheng-Prusoff equation.

| SMILES | Ki [nM] |
| --- | --- |
| C[C@H]1COC[C@H](C)N1c1nc2c(C(=O)NC3CC4CCCC(C3)N4)cccc2o1 (stereo partly drawn) [Example 81, Endo-N-(9-Azabicyclo[3.3.1]nonan-3-yl)-2-((3S,5S)-3,5-dimethylmorpholino)benzoxazole-4-carboxamide Hydrochloride] | 16.8 |
| CCC(=O)N1C[C@H](C)N(c2nc3c(C(=O)NC4CC5CCCC(C4)N5C)cccc3o2)[C@@H](C)C1 (stereo partly drawn) [Example 134, Endo-N-(9-methyl-9-azabicyclo[3.3.1]nonan-3-yl)-2-((2S,6S)-2,6-dimethyl-4-propionylpiperazin-1-yl)benzoxazole-4-carboxamide Hydrochloride] | 1.7 |
| COC(=O)N1C[C@H](C)N(c2nc3c(C(=O)NC4CC5CCCC(C4)N5C)cccc3o2)[C@@H](C)C1 (stereo partly drawn) [Example 125, Endo-(3S,5S)-Methyl 3,5-dimethyl-4-(4-(9-methyl-9-azabicyclo[3.3.1]nonan-3-ylcarbamoyl)benzoxazol-2-yl)piperazine-1-carboxylate Hydrochloride] | 2.1 |
| C[C@@H]1CN(c2nc3c(C(=O)NC4CC5CCCC(C4)N5C)cccc3o2)[C@@H](C)CN1 (relative stereo) [Example 60, Endo N-(9-Methyl-9-azabicyclo[3.3.1]nonan-3-yl)-2-((2S*,5R*)-2,5-dimethylpiperazin-1-yl)benzoxazole-4-carboxamide Hydrochloride] | 10.5 |
| C=CCN1C[C@H](C)N(c2nc3c(C(=O)NC4CC5CCCC(C4)N5C)cccc3o2)C[C@H]1C (relative stereo) [Example 147, Endo-N-(9-Methyl-9-azabicyclo[3.3.1]nonan-3-yl)-2-((2S*,5R*)-4-allyl-2,5-dimethylpiperazin-1-yl)benzoxazole-4-carboxamide Dihydrochloride] | 10.8 |
| CN1[C@@H]2CCC[C@H]1C[C@@H](NC(=O)c1cccc3oc(N4CCNCC45CCCC5)nc13)C2 [Example 100, Endo-N-(9-Methyl-9-azabicyclo[3.3.1]nonan-3-yl)-2-(6,9-diazaspiro[4.5]decan-6-yl)benzoxazole-4-carboxamide Hydrochloride] | 11.4 |
| CN1[C@@H]2CCC[C@H]1C[C@@H](NC(=O)c1cccc3oc(NCCN4CCOCC4)nc13)C2 [Example 33, Endo-N-(9-Methyl-9-azabicyclo[3.3.1]nonan-3-yl)-2-(2-morpholinoethylamino)benzoxazole-4-carboxamide Trihydrochloride] | 168 |
| CC[C@@H]1COCCN1c1nc2c(C(=O)NC3CC4CCCC(C3)N4C)cccc2o1 (stereo partly drawn) [Example 151, Endo-N-(9-Methyl-9-azabicyclo[3.3.1]nonan-3-yl)-2-((R)-3-ethylmorpholino)-benzoxazole-4-carboxamide Hydrochloride] | 34 |
| CC(C)C[C@H]1CNCCN1c1nc2c(C(=O)NC3CC4CCCC(C3)N4C)cccc2o1 (stereo partly drawn) [Example 77, Endo-N-(9-Methyl-9-azabicyclo[3.3.1]nonan-3-yl)-2-((S)-2-isobutylpiperazine-1-yl)benzoxazole-4-carboxamide Hydrochloride] | 6.4 |
| CN(C)c1nc2c(C(=O)N[C@H]3C[C@H]4COC[C@@H](C3)N4C)cccc2o1 [Example 30, Endo-N-(9-methyl-3-oxa-9-azabicyclo[3.3.1]non-7-yl)-2-(dimethylamino)benzoxazole-4-carboxamide Hydrochloride] | 79 |
| C[C@H]1CN(C(=O)C(C)(C)C)C[C@H](C)N1c1nc2c(C(=O)NC3CC4CCCC(C3)N4C)cccc2o1 (stereo partly drawn) [Example 130, Endo-N-(9-methyl-9-azabicyclo[3.3.1]nonan-3-yl)-2-((2S,6S)-2,6-dimethyl-4-pivaloylpiperazin-1-yl)benzoxazole-4-carboxamide Hydrochloride] | 2.8 |
| CN1C2CCCC1CC(NC(=O)c1cccc3oc(NC4CC5CCCC(C4)N5C)nc13)C2 (stereo not drawn) [Example 37, Endo-N-(9-Methyl-9-azabicyclo[3.3.1]nonan-3-yl)-2-(9-Methyl-9-azabicyclo[3.3.1]non-3-ylamino)benzoxazole-4-carboxamide Trihydrochloride] | 243 |
| CN1[C@@H]2CCC[C@H]1C[C@@H](NC(=O)c1cccc3oc(N4CCNc5ccccc54)nc13)C2 [Example 29, Endo-N-(9-Methyl-9-azabicyclo[3.3.1]non-3-yl)-2-(3,4-dihydroquinoxaline-1(2H)-yl)benzoxazole-4-carboxamide Dihydrochloride] | 3.6 |
| CN1[C@@H]2CCC[C@H]1C[C@@H](NC(=O)c1cccc3oc(N4CCn5ccnc5C4)nc13)C2 [Example 79, Endo-N-(9-Methyl-9-azabicyclo[3.3.1]nonan-3-yl)-2-(5,6-dihydroimidazo[1,2-a]pyrazin-7(8H)-yl)benzoxazole-4-carboxamide Hydrochloride] | 29.3 |
| Cc1cc(C(=O)NC2CN3CCC2CC3)c2nc(N)oc2c1 [Example 127, (S)—N-(quinulidin-8-yl)-2-amino-6-methylbenzoxazole-4-carboxamide Hydrochloride] | 20 |
| CC(C)C(=O)N1C[C@H](C)N(c2nc3c(C(=O)NC4CC5CCCC(C4)N5C)cccc3o2)[C@@H](C)C1 (stereo partly drawn) [Example 135, Endo-N-(9-methyl-9-azabicyclo[3.3.1]nonan-3-yl)-2-((2S,6S)-4-isobutyryl-2,6-dimethylpiperazin-1-yl)benzoxazole-4-carboxamide Hydrochloride] | 2 |
| O=C(N[C@@H]1CN2CCC1CC2)c1cccc2oc(N3CCOCC3)nc12 [Example 10, (S)—N-(quinuclidine-8-yl)-2-morpholino-benzoxazole-4-carboxamide Hydrochloride] | 164 |
| CN1[C@@H]2CCC[C@H]1C[C@@H](NC(=O)c1cccc3oc(N4CCNCC4(C)C)nc13)C2 [Example 102, Endo-N-(9-Methyl-9-azabicyclo[3.3.1]nonan-3-yl)-2-(2,2-dimethylpiperazin-1-yl)benzoxazole-4-carboxamide Hydrochloride] | 15.8 |
| CN1CCN(c2nc3c(C(=O)N[C@H]4C[C@H]5CCC[C@@H](C4)N5C)cccc3o2)CC1 [Example 1, Endo-N-(9-Methyl-9-azabicyclo[3.3.1]non-3-yl)-2-(4-methylpiperazin-1-yl)benzoxazole-4-carboxamide Dihydrochloride] | 85 |
| C[C@H]1COC[C@H](C)N1c1nc2c(C(=O)N[C@@H]3CN4CCC3CC4)cccc2o1 [Example 90, (S)—N-(quinuclidine-8-yl)-2-((3S,5S)-3,5-Dimethylmorpholino)benzoxazole-4-carboxamide Hydrochloride] | 6.8 |
| CC1CNCCN1c1nc2c(C(=O)NC3CN4CCC3CC4)cccc2o1 [Example 26, (S)—N-(quinuclidine-8-yl)-2-(2-methylpiperazin-1-yl)benzoxazole-4-carboxamide Dihydrochloride] | 241 |
| CN1CCCN(c2nc3c(C(=O)N[C@H]4C[C@H]5CCC[C@@H](C4)N5C)cccc3o2)CC1 [Example 11, Endo-N-(9-Methyl-9-azabicyclo[3.3.1]non-3-yl)-2-(4-methyl-1,4-diazepam-1-yl)benzoxazole-4-carboxamide Dihydrochloride] | 89.6 |
| CC(C)C[C@H]1COCCN1c1nc2c(C(=O)NC3CC4CCCC(C3)N4C)cccc2o1 (stereo partly drawn) [Example 67, Endo-N-(9-Methyl-9-azabicyclo[3.3.1]nonan-3-yl)-2-((S)-3-isobutylmorpholino)benzoxazole-4-carboxamide Hydrochloride] | 3.9 |
